Like-named read-outs stand apart in the source and are kept apart here.

Among the data in publication PMC7305236, “The atypical chemokine receptor ACKR3/CXCR7 is a broad-spectrum scavenger for opioid peptides” (Nature Communications, 2020) are activation values, retold here.

Common to all, as to design: dose or concentration left out as unconfirmed
For test [1], the target named is T1, CCR4 (Homo sapiens, UniProt P51679).
T1 construct: expressed in transfected cells
T1 sequence (P51679 1-360): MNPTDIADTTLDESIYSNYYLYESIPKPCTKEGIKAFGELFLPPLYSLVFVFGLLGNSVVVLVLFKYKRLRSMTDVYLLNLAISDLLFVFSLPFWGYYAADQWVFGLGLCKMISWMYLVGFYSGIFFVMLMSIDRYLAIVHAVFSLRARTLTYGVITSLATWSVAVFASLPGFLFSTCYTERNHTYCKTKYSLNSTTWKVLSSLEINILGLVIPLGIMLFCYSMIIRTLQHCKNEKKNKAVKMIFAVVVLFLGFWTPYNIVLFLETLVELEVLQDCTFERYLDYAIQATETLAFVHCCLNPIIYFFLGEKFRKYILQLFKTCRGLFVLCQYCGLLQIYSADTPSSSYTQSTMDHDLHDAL
Description: Figure S2a opioid peptide screen on chemokine receptors. It counts as cell-based.

Test [2] deals with T2, CXCR3A (Homo sapiens, UniProt P49682).
T2 construct: expressed in transfected cells; host or cells: U87 cells
T2 sequence (P49682 1-368): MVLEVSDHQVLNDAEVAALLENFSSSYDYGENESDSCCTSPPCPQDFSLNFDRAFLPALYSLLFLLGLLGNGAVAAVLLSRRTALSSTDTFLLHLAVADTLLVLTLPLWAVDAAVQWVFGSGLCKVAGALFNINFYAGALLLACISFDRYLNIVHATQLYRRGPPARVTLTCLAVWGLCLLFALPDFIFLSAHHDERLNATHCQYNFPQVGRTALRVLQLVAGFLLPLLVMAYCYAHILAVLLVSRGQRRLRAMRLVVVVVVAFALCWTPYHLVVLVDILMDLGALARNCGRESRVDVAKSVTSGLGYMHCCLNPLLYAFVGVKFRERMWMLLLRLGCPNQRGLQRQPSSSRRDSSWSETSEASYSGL
The description is as above. It counts as cell-based.

The target in test [3] is T3, CXCR4 (Homo sapiens, UniProt P61073).
T3 construct: expressed in transfected cells; host or cells: U87, transient cotransfection of pNBe vectors
In words: cell-based.

For test [4], the target named is T4, CXCR6 (Homo sapiens, UniProt O00574).
T4 construct: expressed in transfected cells
Description: Figure S2a opioid peptide screen on chemokine receptors. The test is classed as cell-based.

The target in test [5] is T5, XCR1 (Homo sapiens, UniProt P46094).
T5 construct: expressed in transfected cells
T5 sequence (P46094 1-333): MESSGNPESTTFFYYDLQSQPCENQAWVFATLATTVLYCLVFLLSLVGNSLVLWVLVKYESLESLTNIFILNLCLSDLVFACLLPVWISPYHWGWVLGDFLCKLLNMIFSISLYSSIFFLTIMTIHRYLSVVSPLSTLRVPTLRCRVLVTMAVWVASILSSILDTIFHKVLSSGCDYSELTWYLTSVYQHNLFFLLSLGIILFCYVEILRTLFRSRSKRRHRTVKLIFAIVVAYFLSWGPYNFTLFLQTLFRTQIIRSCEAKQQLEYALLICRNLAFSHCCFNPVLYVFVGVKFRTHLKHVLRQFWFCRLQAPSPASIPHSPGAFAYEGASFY
The test is described as above. The test is classed as cell-based.

Test [6] concerns the target T6, CCR3 (Homo sapiens, UniProt P51677).
T6 sequence (P51677 1-355): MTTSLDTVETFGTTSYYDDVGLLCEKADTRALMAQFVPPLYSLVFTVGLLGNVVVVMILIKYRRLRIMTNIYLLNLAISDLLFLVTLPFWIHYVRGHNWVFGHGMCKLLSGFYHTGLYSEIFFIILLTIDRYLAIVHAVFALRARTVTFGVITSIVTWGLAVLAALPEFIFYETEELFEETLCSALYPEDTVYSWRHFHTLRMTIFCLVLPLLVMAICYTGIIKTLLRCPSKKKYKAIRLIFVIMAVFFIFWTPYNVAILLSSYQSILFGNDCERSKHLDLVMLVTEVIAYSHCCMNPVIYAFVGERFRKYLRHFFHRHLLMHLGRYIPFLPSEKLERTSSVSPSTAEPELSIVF
Described as above. The following applies: read-out: CCR3 activity, ctrl+ = 100, Figure S2a.

The target in test [7] is T7, ACKR4 (Homo sapiens, UniProt Q9NPB9).
T7 sequence (Q9NPB9 1-350): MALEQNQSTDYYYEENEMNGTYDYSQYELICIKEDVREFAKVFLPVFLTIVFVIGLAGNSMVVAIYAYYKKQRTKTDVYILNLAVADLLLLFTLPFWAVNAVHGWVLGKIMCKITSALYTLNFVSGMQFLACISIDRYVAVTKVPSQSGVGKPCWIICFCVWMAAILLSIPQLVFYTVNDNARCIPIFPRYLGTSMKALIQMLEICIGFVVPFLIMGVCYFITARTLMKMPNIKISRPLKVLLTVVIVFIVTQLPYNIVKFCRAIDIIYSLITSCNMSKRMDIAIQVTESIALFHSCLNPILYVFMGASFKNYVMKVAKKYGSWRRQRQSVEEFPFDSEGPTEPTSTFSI
Described as above. The following applies: read-out: ACKR4 activity, ctrl+ = 100, Figure S2a.

The mark [8] stands for this setting: replicate 1, read-out: CCR4 activity, ctrl+ = 100.
Setting [9] is: replicate 2, read-out: CCR4 activity, ctrl+ = 100.
Where [10] appears, read: replicate 3, read-out: CCR4 activity, ctrl+ = 100.
Where [11] appears, read: replicate 1, read-out: CXCR3A activity, ctrl+ = 100.
Where [12] appears, read: replicate 2, read-out: CXCR3A activity, ctrl+ = 100.
Where [13] appears, read: replicate 3, read-out: CXCR3A activity, ctrl+ = 100.
The mark [14] stands for this setting: replicate 1, read-out: CXCR6 activity, ctrl+ = 100.
The mark [15] stands for this setting: replicate 2, read-out: CXCR6 activity, ctrl+ = 100.
The mark [16] stands for this setting: replicate 3, read-out: CXCR6 activity, ctrl+ = 100.
Where [17] appears, read: replicate 1, read-out: XCR1 activity, ctrl+ = 100.
Where [18] appears, read: replicate 2, read-out: XCR1 activity, ctrl+ = 100.
Where [19] appears, read: replicate 3, read-out: XCR1 activity, ctrl+ = 100.

T4 sequence (O00574 whole entry): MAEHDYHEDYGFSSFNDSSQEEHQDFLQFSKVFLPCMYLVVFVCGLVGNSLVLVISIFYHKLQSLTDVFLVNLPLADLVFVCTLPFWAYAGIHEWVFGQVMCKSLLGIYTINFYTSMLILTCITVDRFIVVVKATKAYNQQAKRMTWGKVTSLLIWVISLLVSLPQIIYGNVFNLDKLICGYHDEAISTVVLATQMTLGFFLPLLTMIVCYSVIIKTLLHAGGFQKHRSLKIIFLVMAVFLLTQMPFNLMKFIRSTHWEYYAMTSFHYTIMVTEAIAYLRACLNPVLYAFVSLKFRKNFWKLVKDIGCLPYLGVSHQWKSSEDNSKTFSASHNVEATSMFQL
T3 sequence (P61073 whole entry): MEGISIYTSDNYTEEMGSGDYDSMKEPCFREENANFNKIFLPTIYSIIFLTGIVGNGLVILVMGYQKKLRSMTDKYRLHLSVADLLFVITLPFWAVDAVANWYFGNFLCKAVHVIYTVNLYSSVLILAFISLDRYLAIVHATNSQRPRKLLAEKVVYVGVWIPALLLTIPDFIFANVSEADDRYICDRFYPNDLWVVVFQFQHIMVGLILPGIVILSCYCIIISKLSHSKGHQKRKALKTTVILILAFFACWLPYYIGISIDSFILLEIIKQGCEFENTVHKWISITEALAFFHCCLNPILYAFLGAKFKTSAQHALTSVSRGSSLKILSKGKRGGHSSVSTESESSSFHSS

For `CSCC[C@H](NC(=O)[C@H](Cc1ccccc1)NC(=O)CNC(=O)CNC(=O)[C@@H](N)Cc1ccc(O)cc1)C(=O)N[C@@H](CCCNC(=N)N)C(=O)N[C@@H](CCCNC(=N)N)C(=O)N[C@H](C(=O)NCC(=O)N[C@@H](CCCNC(=N)N)C(=O)N1CCC[C@H]1C(=O)N[C@@H](CCC(=O)O)C(=O)N[C@@H](Cc1c[nH]c2ccccc12)C(=O)N[C@@H](Cc1c[nH]c2ccccc12)C(=O)N[C@@H](CCSC)C(=O)N[C@@H](CC(=O)O)C(=O)N[C@@H](Cc1ccc(O)cc1)C(=O)N[C@@H](CCC(N)=O)C(=O)N[C@@H](CCCCN)C(=O)N[C@@H](CCCNC(=N)N)C(=O)N[C@@H](Cc1ccc(O)cc1)C(=O)NCC(=O)O)C(C)C` [BAM22], the activation in test [1] (setting [8]) was -0.405%; in test [1] (setting [9]), -3.44%; in test [1] (setting [10]) it was 3.02%; in test [2] (setting [11]), 3.44%; in test [2] (setting [12]), 2.11%; in test [2] (setting [13]), 7.49%. Besides, the activation is 22.9% in test [3] (read-out: CXCR4 activity, ctrl+ = 100, Figure S2a, replicate 1); 27.7% in test [3] (read-out: CXCR4 activity, ctrl+ = 100, Figure S2a, replicate 2); -6.34% in test [3] (read-out: CXCR4 activity, ctrl+ = 100, Figure S2a, replicate 3); -0.237% in test [4] (setting [14]); -0.939% in test [4] (setting [15]); -1.21% in test [4] (setting [16]). Moreover, the activation in test [5] (setting [17]) was -2.25%; in test [5] (setting [18]), -4.24%; in test [5] (setting [19]), 8.51%; in test [6] (replicate 1), 5.68%; in test [6] (replicate 2), -4.83%; in test [6] (replicate 3), 17.9%. The activation is -4.56% in test [7] (replicate 1), -1.96% in test [7] (replicate 2) and 5.51% in test [7] (replicate 3).

On to `CSCC[C@H](NC(=O)[C@H](Cc1ccccc1)NC(=O)CNC(=O)CNC(=O)[C@@H](N)Cc1ccc(O)cc1)C(=O)N[C@@H](CCCNC(=N)N)C(=O)N[C@@H](CCCNC(=N)N)C(=O)N[C@H](C(N)=O)C(C)C` [Adrenorphin], for which the activation in test [1] (setting [8]) is -4.72%; in test [1] (setting [9]) it was -4.07%; in test [1] (setting [10]), 2.73%; in test [2] (setting [11]) it was -0.787%; in test [2] (setting [12]), 0.214%; in test [2] (setting [13]), 3.64%. The activation in test [3] (Figure S2a, replicate 1, read-out: CXCR4 activity, ctrl+ = 100) was -0.233%; in test [3] (Figure S2a, replicate 2, read-out: CXCR4 activity, ctrl+ = 100), 14%; in test [3] (Figure S2a, replicate 3, read-out: CXCR4 activity, ctrl+ = 100), 3.91%; in test [4] (setting [14]) it was 0.866%; in test [4] (setting [15]), -0.941%; in test [4] (setting [16]) it was -0.716%. Also, the activation is -2.07% in test [5] (setting [17]); 2.59% in test [5] (setting [18]); 12.1% in test [5] (setting [19]); 10.9% in test [6] (replicate 1); -10.8% in test [6] (replicate 2); 23.6% in test [6] (replicate 3). In addition, the activation in test [7] (replicate 1) was -1.94%; in test [7] (replicate 2), -1.88%; in test [7] (replicate 3), -0.895%.
